“And” between values parts separate entries of the source, which are not always exact repeats. Identical values can stand only once. Toxic doses and inconclusive results are not listed. How the source made its calls: active means survival T/C of 150% or more; inactive means T/C below 125% in these data.
System: P388 leukemia ip, CD2F1 mice, survival T/C
Assay: NCI In Vivo Anticancer Drug Screen. Data for tumor model P388 Leukemia (intraperitoneal) in CD2F1 (CDF1) mice
Settings: endpoint: median survival time, higher = longer survival
In short: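 Mice carrying the transplanted tumor received test compound or vehicle. Survival was recorded in each group, and the value is the treated-group measurement divided by that of the vehicle-treated control group.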

[1] = dose: 60.0 mg/kg/injection, schedule: Q01DX005 (ip), vehicle: saline with Tween-80
[2] = dose: 120.0 mg/kg/injection, schedule: Q01DX005 (ip), vehicle: saline with Tween-80
[3] = dose: 240.0 mg/kg/injection, schedule: Q01DX005 (ip), vehicle: saline with Tween-80
[4] = dose: 50.0 mg/kg/injection, schedule: Q01DX005 (ip), vehicle: Klucel (hydroxypropylcellulose) (HPC)
[5] = dose: 100.0 mg/kg/injection, schedule: Q01DX005 (ip), vehicle: Klucel (hydroxypropylcellulose) (HPC)
[6] = dose: 200.0 mg/kg/injection, schedule: Q01DX005 (ip), vehicle: Klucel (hydroxypropylcellulose) (HPC)
[7] = dose: 50.0 mg/kg/injection, schedule: Q01DX005 (ip), vehicle: saline with Tween-80
[8] = dose: 100.0 mg/kg/injection, schedule: Q01DX005 (ip), vehicle: saline with Tween-80
[9] = dose: 25.0 mg/kg/injection, schedule: Q01DX009 (ip), vehicle: saline with Tween-80
[10] = dose: 50.0 mg/kg/injection, schedule: Q01DX009 (ip), vehicle: saline with Tween-80
[11] = dose: 100.0 mg/kg/injection, schedule: Q01DX009 (ip), vehicle: saline with Tween-80

Measured: T/C

Cc1nc(C(=O)O)cc([N+](=O)[O-])c1C
inactive: dose: 25.0 mg/kg/injection, schedule: Q01DX009 (ip), vehicle: other 97 % of control | dose: 50.0 mg/kg/injection, schedule: Q01DX009 (ip), vehicle: other 97 % of control | dose: 100.0 mg/kg/injection, schedule: Q01DX009 (ip), vehicle: other 100 % of control | dose: 200.0 mg/kg/injection, schedule: Q01DX009 (ip), vehicle: other 94 % of control

CCN(CC(O)CN(CC1CO1)c1ccccc1)c1ccccc1 (stereo not drawn)
inactive: dose: 100.0 mg/kg/injection, schedule: Q04DX002 (ip), vehicle: saline with Tween-80 100 % of control | dose: 200.0 mg/kg/injection, schedule: Q04DX002 (ip), vehicle: saline with Tween-80 94 % of control | dose: 400.0 mg/kg/injection, schedule: Q04DX002 (ip), vehicle: saline with Tween-80 101 % of control

CC(C)c1cccc(C(C)C)c1NC(=O)OC1CCCCC1C (stereo not drawn)
inactive: [1] 94 % of control | [2] 90 % of control | [3] 98 % of control

Cc1cc(O)c2c(c1)C(=O)C(c1c(O)c3c(C)cccc3oc1=O)=C(c1c(O)c3c(C)cccc3oc1=O)C2=O
inactive: dose: 14.0 mg/kg/injection, schedule: Q01DX005 (ip), vehicle: Klucel (hydroxypropylcellulose) (HPC) 92 % of control | dose: 28.0 mg/kg/injection, schedule: Q01DX005 (ip), vehicle: Klucel (hydroxypropylcellulose) (HPC) 91 % of control | dose: 56.0 mg/kg/injection, schedule: Q01DX005 (ip), vehicle: Klucel (hydroxypropylcellulose) (HPC) 89 % of control | dose: 112.0 mg/kg/injection, schedule: Q01DX005 (ip), vehicle: Klucel (hydroxypropylcellulose) (HPC) 89 % of control

C=C(C)[C@@H]1CC[C@@H]2C(=CC[C@]3(C)C([C@H](C)CC/C=C(/C)C(=O)O)CC[C@@]23C)[C@@]1(C)CCC(=O)O (stereo partly drawn)
inactive: dose: 1.41 mg/kg/injection, schedule: Q01DX009 (ip), vehicle: saline + alcohol 88 % of control | dose: 2.81 mg/kg/injection, schedule: Q01DX009 (ip), vehicle: saline + alcohol 93 % of control | dose: 5.63 mg/kg/injection, schedule: Q01DX009 (ip), vehicle: saline + alcohol 99 % of control | dose: 11.25 mg/kg/injection, schedule: Q01DX009 (ip), vehicle: saline + alcohol 99 % of control | dose: 90.0 mg/kg/injection, schedule: Q01DX009 (ip), vehicle: saline + alcohol 102 % of control

COc1ccc(C(c2c(O)c3ccccc3oc2=O)N2CCOCC2)cc1 (stereo not drawn)
inactive: dose: 15.0 mg/kg/injection, schedule: Q01DX005 (ip), vehicle: saline with Tween-80 99 % of control | dose: 30.0 mg/kg/injection, schedule: Q01DX005 (ip), vehicle: saline with Tween-80 97 % of control | [1] 100 % of control and 94 % of control

c1ccc2nc3c(nc2c1)CCCC3
inactive: [4] 96 % of control | [5] 109 % of control | [6] 100 % of control

CC[n+]1cccc(C(=O)c2ccccc2)c1
inactive: dose: 3.75 mg/kg/injection, schedule: Q01DX005 (ip), vehicle: saline 103 % of control | dose: 7.5 mg/kg/injection, schedule: Q01DX005 (ip), vehicle: saline 97 % of control | dose: 15.0 mg/kg/injection, schedule: Q01DX005 (ip), vehicle: saline 102 % of control | dose: 30.0 mg/kg/injection, schedule: Q01DX005 (ip), vehicle: saline 105 % of control

c1ccc2c(c1)[nH]c1c2nc2ncccn21
inactive: [4] 106 % of control | [5] 106 % of control

Cc1ccc(C(C)C)cc1NC(=O)c1cccnc1
inactive: dose: 50.0 mg/kg/injection, schedule: Q04DX002 (ip), vehicle: Klucel (hydroxypropylcellulose) (HPC) 98 % of control | dose: 100.0 mg/kg/injection, schedule: Q04DX002 (ip), vehicle: Klucel (hydroxypropylcellulose) (HPC) 102 % of control | dose: 200.0 mg/kg/injection, schedule: Q04DX002 (ip), vehicle: Klucel (hydroxypropylcellulose) (HPC) 92 % of control

O=C(NCCCCC(NC(=O)c1ccccc1)C(=O)O)OCc1ccccc1 (stereo not drawn)
inactive: [7] 96 % of control | [8] 100 % of control | dose: 200.0 mg/kg/injection, schedule: Q01DX005 (ip), vehicle: saline with Tween-80 92 % of control

CNC(=O)N1CC2CCC(C)(C1)OC2(C)C (stereo not drawn)
inactive: [4] 97 % of control | [5] 100 % of control and 103 % of control | [6] 103 % of control and 106 % of control

CCC(c1ccc(OCCS(=O)(=O)OC)cc1)C(CC)c1ccc(OCCS(=O)(=O)OC)cc1 (stereo not drawn)
inactive: dose: 12.5 mg/kg/injection, schedule: Q01DX009 (ip), vehicle: suspension in saline 100 % of control | dose: 25.0 mg/kg/injection, schedule: Q01DX009 (ip), vehicle: suspension in saline 94 % of control | dose: 50.0 mg/kg/injection, schedule: Q01DX009 (ip), vehicle: saline 91 % of control | dose: 50.0 mg/kg/injection, schedule: Q01DX009 (ip), vehicle: suspension in saline 87 % of control | dose: 200.0 mg/kg/injection, schedule: Q01DX009 (ip), vehicle: saline 92 % of control

CN(C)C(=S)n1c(=S)nc(N(C)C)sc1=S
inactive: dose: 12.5 mg/kg/injection, schedule: Q01DX005 (ip), vehicle: saline with Tween-80 103 % of control | dose: 25.0 mg/kg/injection, schedule: Q01DX005 (ip), vehicle: saline with Tween-80 108 % of control | [7] 108 % of control and 113 % of control | [8] 109 % of control

O=c1cc(O)n2ncnc2[nH]1
inactive: [9] 101 % of control | [10] 104 % of control | [11] 104 % of control | dose: 200.0 mg/kg/injection, schedule: Q01DX009 (ip), vehicle: saline with Tween-80 99 % of control

NC(=O)c1cc2c3ccccc3ncc2c2ccccc12
inactive: dose: 100.0 mg/kg/injection, schedule: Q01DX001 (ip), vehicle: saline with Tween-80 100 % of control | dose: 200.0 mg/kg/injection, schedule: Q01DX001 (ip), vehicle: saline with Tween-80 100 % of control | dose: 400.0 mg/kg/injection, schedule: Q01DX001 (ip), vehicle: saline with Tween-80 100 % of control

CC(=O)/C(=C\c1ccccc1F)C(=O)CCN(C)C
inactive: dose: 60.0 mg/kg/injection, schedule: Q01DX005 (ip), vehicle: saline 109 % of control | dose: 120.0 mg/kg/injection, schedule: Q01DX005 (ip), vehicle: saline 118 % of control

COC(=O)/C=C\C=C(\CBr)C(=O)OC
inactive: dose: 6.25 mg/kg/injection, schedule: Q01DX009 (ip), vehicle: saline with Tween-80 91 % of control | dose: 6.25 mg/kg/injection, schedule: Q04DX003 (ip), vehicle: saline 110 % of control | dose: 12.5 mg/kg/injection, schedule: Q01DX009 (ip), vehicle: saline with Tween-80 95 % of control | dose: 12.5 mg/kg/injection, schedule: Q04DX003 (ip), vehicle: saline 110 % of control | [9] 91 % of control | dose: 25.0 mg/kg/injection, schedule: Q04DX003 (ip), vehicle: saline 110 % of control

Cn1c(=O)c2c(CCCC(=O)O)onc2n(C)c1=O
inactive: [9] 96 % of control | [10] 93 % of control | [11] 90 % of control

CCOC(=O)Nc1cc(=O)c([N+](=O)[O-])c(N)[nH]1
inactive: dose: 60.0 mg/kg/injection, schedule: Q01DX005 (ip), vehicle: saline + Tween-80 + alcohol 99 % of control | dose: 120.0 mg/kg/injection, schedule: Q01DX005 (ip), vehicle: saline + Tween-80 + alcohol 101 % of control | dose: 240.0 mg/kg/injection, schedule: Q01DX005 (ip), vehicle: saline + Tween-80 + alcohol 100 % of control

O=C(CC1=NC2NN(c3ccccc3)C(=O)C2=C1CC(=O)c1cccc([N+](=O)[O-])c1)c1cccc([N+](=O)[O-])c1 (stereo not drawn)
inactive: [1] 95 % of control | [2] 99 % of control | [3] 86 % of control

Reference: PubChem BioAssay AID330 (DTP/NCI, 2004)
